Literature values, collected in patent publication US20220031887A1, “Active Materials, Surfaces, Surface Treatments And Methods Using Inclusion Complex Formers For Pathogen Reduction” (priority 2020, published 2022).

Q: For `O=C1OC2(c3ccccc31)c1cc(Br)c(O)c(Br)c1Oc1c2cc(Br)c(O)c1Br` [Eosin Y], which Epsilon (in ideal solvent) is on record?
A: The Epsilon was 112,000.

Q: What about the “Lambda Max” value (peak absorption in visible light) of the same molecule?
A: The value was 525.
